Consider one compound from US20150275187A1, “FURFURAL-RESISTANT GENE AND FURFURAL-RESISTANT STRAINS COMPRISING THE SAME” (KOREA INSTITUTE OF SCIENCE AND TECHNOLOGY, priority 2014, published 2015).

Experiment [1] concerns cg3399 (Permease of the major facilitator superfamily) mRNA. The experiment can be described thus: Microarray gene expression depending on furfural concentration. The settings on record: against wild type in medium not containing furfural. In kind it is cell-based, Corynebacterium glutamicum. From the text:
(§1) DNA Microarray is used as a method for analyzing gene expression depending on the furfural stress.
(§2) Specifically, among genes corresponding to the module classified at http://www.coryneregnet.de/ of entire genes, and genes, whose corresponding protein names contain at least one of transport, permease and pump, genes showing increased expression level at all furfural concentrations are selected, and then, genes showing about 10 folds or more increased expression level at least one concentration are selected. And, among the selected genes, existing genes, which are known to response to stress, are excluded by literature search, and cg0310 (SEQ ID No.: 3), cg1661 (SEQ ID No.: 1), cg3374 (SEQ ID No.: 4) and cg3399 (SEQ ID No.: 5) are selected as the target gene. These are catalase, efflux pump in the cell membrane, oxidoreductase and permease-type genes. Then, information of the target genes selected by microarray, and expression levels of the target genes depending on the furfural concentration in the medium, which are obtained by analyzing gene expression pattern thereof using microarray, are shown in the following Table 2.
(§3) The gene expression levels of the above Table 2 show the relative mRNA expression levels of the target genes of the wild type strain grown in the medium containing the furfural, against the wild type strain grown without stress in the medium not containing the furfural. As a result of analysis, compared with the medium not containing the furfural, the mRNA expression levels of each target gene are increased in the medium containing the furfural, and the mRNA expression levels of the target genes are further increased as the furfural concentration is increased.

Experiment [2] relates to cg1661 (Arsenite efflux pump ACR3 or related permease) mRNA. The experiment is described as above. In kind it is cell-based, Corynebacterium glutamicum. The settings on record: against wild type in medium not containing furfural.
Text: as §1, §2, §3

For experiment [3], the system named is cg0310 (katA, catalase) mRNA. The description is as above. In kind it is cell-based, Corynebacterium glutamicum. To be noted: against wild type in medium not containing furfural.
Text: as §1, §2, §3

Experiment [4] deals with cg3374 (cye1, Putative NADH-dependent flavin oxidoreductase) mRNA. The experiment is described as above. The settings on record: against wild type in medium not containing furfural. In kind it is cell-based, Corynebacterium glutamicum.
Text: as §1, §2, §3

Experiment [5] deals with Corynebacterium glutamicum ATCC 13032. Kind of experiment: Growth inhibitory effect of furfural in wild type strain. In kind it is cell-based. The procedure:
In order to develop a furfural-resistant strain, first of all, Corynebacterium glutamicum is selected as a wild type, and then, growth inhibitory effect of furfural at Corynebacterium glutamicum wild type strain (wild type), which is Corynebacterium glutamicum ATCC 13032, depending on concentration, and concentrations of furfural and furfuryl alcohol in a culture solution depending on cell growth are confirmed.
Specifically, as the culture solution, 2% glucose as a carbon source is added to a minimal medium, CGXII medium, and furfural of 6.5 mM, 13 mM and 20 mM are added thereto, respectively, to compare growth speed with the case not adding the furfural. At this time, the composition of the CGXII medium is 20 g/L (NH4)2504, 5 g/L Urea, 1 g/L KH2PO4, 1 g/L K2HPO4, 0.25 g/L MgSO4.7H2O, 42 g/L MOPS, 10 mg/L CaCl2, 0.2 mg/L Biotin, 0.03 g/L Protecatechuic acid, Trace metal (10 mg/L FeSO4.7H2O, 10 mg/L MnSO4.H2O, 1 mg/L ZnSO4.7H2O, 0.2 mg/L CuSO4.7H2O, 0.02 mg/L NiCl2.6H2O). Culture is conducted at 30° C. after inoculating the cells (initial OD600=1) into the culture solution 50 mL in a 250 mL Erlenmeyer flask.

Experiment [6] relates to cg1310 (rolM, Maleylacetate reductase) mRNA. Kind of experiment: Microarray gene expression depending on furfural concentration. In kind it is cell-based, Corynebacterium glutamicum. The settings on record: against wild type in medium not containing furfural.
Text: As a result, among the genes, which are expected to have similarity, cg1310 (SEQ ID No.: 2) showing increased expression at microarray is selected as the target gene. And, information about the selected target gene, and expression level of the target gene depending on the furfural concentration in the medium, which is obtained by analyzing gene expression pattern thereof depending on the furfural concentration using microarray, are shown in the following Table 1.
As a result of analysis, compared with the medium not containing the furfural, the mRNA expression level of the target gene is increased in the medium containing the furfural, and the mRNA expression level of the target gene is further increased when the furfural concentration is increased from 6.5 mM to 13 mM.
as §1

Setting [7] is: Furfural Conc. in Medium: 6.5 mM.
Setting [8] is: Furfural Conc. in Medium: 13 mM.
[9] abbreviates: Furfural Conc. in Medium: 20 mM.

Turning to `O=Cc1ccco1` [furfural], the “Gene Expression Level (relative mRNA) cg3399” value is 4.485 in experiment [1] (setting [7]), 6.529 in experiment [1] (setting [8]) and 15.694 in experiment [1] (setting [9]). Moreover, the “Gene Expression Level (relative mRNA) cg1661” value is 7.240 in experiment [2] (setting [7]), 3.071 in experiment [2] (setting [8]) and 13.186 in experiment [2] (setting [9]). The “Gene Expression Level (relative mRNA) cg0310” value in experiment [3] (setting [7]) was 3.219; in experiment [3] (setting [8]), 3.443; in experiment [3] (setting [9]) it was 10.956. Moreover, the “Gene Expression Level (relative mRNA) cg3374” value in experiment [4] (setting [7]) is 1.461; in experiment [4] (setting [8]) it was 3.219; in experiment [4] (setting [9]) it was 29.016. For the same compound, the “growth reduction compared with the medium not containing the furfural” value in experiment [5] (6.5 mM furfural, CGXII medium with 2% glucose, 30° C.) is reported as no less than 50%. In addition, the “growth speed of the strain” value in experiment [5] (furfural 6.5, 13 and 20 mM in CGXII medium) is on record as “becomes slow as the furfural concentration in the medium is increased”. Also, the “Gene Expression Level (relative mRNA) cg1310” value in experiment [6] (setting [7]) turned out to be 1.476; in experiment [6] (setting [8]), 2.872; in experiment [6] (setting [9]), 2.183.
